Results on 30 compounds are retold here after patent publication US7666868B2, “N-sulphonylpyrroles and their use as histone deacetylase inhibitors” (4SC AG, priority 2005, dated 2010).

The assay deals with HeLa cervical carcinoma cell line. Description: Cellular cytotoxicity assay (Alamar Blue / Resazurin). To be noted: Homo sapiens; HeLa cells, 48 hours incubation; read-out: IC50 (anti-proliferative/cytotoxic potency). It is filed as cell-based. As for the experimental part: The anti-proliferative activity of the histone deacetylase inhibitory compounds as described herein, is evaluated with the HeLa cervical carcinoma cell line (ATCC CCL2) using the Alamar Blue (Resazurin) cell viability assay (O'Brien et al. Eur J Biochem 267, 5421-5426, 2000). Resazurin is reduced to the fluorescent resorufin by cellular dehydrogenase activity, correlating with viable, proliferating cells. Test compounds are dissolved as 10 mM solutions in dimethylsulfoxide (DMSO) and subsequently diluted in semi-logarithmic steps. HeLa cells are seeded into 96 well flat bottom plates at a density of 3000 cells per well in a volume of 200 μl per well. 24 hours after seeding 1 μl each of the compound dilutions are added into each well of the 96 Well plate. Each compound dilution is tested as quadruplicates. Wells containing untreated control cells are filled with 200 μl DMEM medium containing 0.5% v:v DMSO. The cells are then incubated with the substances for 48 hours at 37° C. in a humidified atmosphere containing 5% carbon dioxide. To determine the viability of the cells, 20 μl of an Resazurin solution (Sigma; 90 mg/l) are added. After 4 hours incubation at 37° C. the fluorescence is measured at an extinction of 544 nm and an emission of 590 nm. For the calculation of the cell viability the emission value from untreated cells is set as 100% viability and the emission rates of treated cells are set in relation to the values of untreated cells. Viabilites are expressed as % values. The corresponding IC50 values of the compounds for cytotoxic activity are determined from the concentration-effect curves by means of non-linear regression.
A general note: Resazurin is reduced to fluorescent resorufin, in cell work by metabolically active cells.
Regarding `O=C(/C=C/c1ccn(S(=O)(=O)c2ccc(-c3cccc(CN4CCOCC4)c3)cc2)c1)NO` [Compound 64, (E)-N-Hydroxy-3-[1-(3′-morpholin-4-ylmethyl-biphenyl-4-sulfonyl)-1H-pyrrol-3-yl]-acrylamide], the IC50 was 0.014 to 6.7 µM. In the case of `O=C(/C=C/c1ccn(S(=O)(=O)c2ccc(-c3cccc(OCCCN4CCCC4)c3)cc2)c1)NO` [Compound 72, (E)-N-Hydroxy-3-{1-[3′-(3-pyrrolidin-1-yl-propoxy)-biphenyl-4-sulfonyl]-1H-pyrrol-3-yl}-acrylamide], the IC50 was 0.014 to 6.7 µM. As to `O=C(/C=C/c1ccn(S(=O)(=O)c2ccc(-c3cccc(OCCN4CCCC4)c3)cc2)c1)NO` [Compound 80, (E)-N-Hydroxy-3-{1-[3′-(2-pyrrolidin-1-yl-ethoxy)-biphenyl-4-sulfonyl]-1H-pyrrol-3-yl}-acrylamide], the IC50 is 0.014 to 6.7 µM. For `O=C(/C=C/c1ccn(S(=O)(=O)c2ccc(-c3cccc(C(F)(F)F)c3)cc2)c1)NO` [Compound 85, (E)-N-Hydroxy-3-[1-(3′-trifluoromethyl-biphenyl-4-sulfonyl)-1H-pyrrol-3-yl]acrylamide] the value was 0.014 to 6.7 µM; for `O=C(/C=C/c1ccn(S(=O)(=O)c2ccc(-c3ccc(N4CCOCC4)cc3)cc2)c1)NO` [Compound 71, (E)-N-Hydroxy-3-[1-(4′-morpholin-4-yl-biphenyl-4-sulfonyl)-1H-pyrrol-3-yl]-acrylamide], 0.014 to 6.7 µM; for `O=C(/C=C/c1ccn(S(=O)(=O)c2ccc(-c3ccc(CNC4CCCC4)cc3)cc2)c1)NO` [Compound 84, (E)-3-[1-(4′-Cyclopentylaminomethyl-biphenyl-4-sulfonyl)-1H-pyrrol-3-yl]-N-hydroxy-acrylamide], 0.014 to 6.7 µM. Consider `O=C(/C=C/c1ccn(S(=O)(=O)c2ccc(-c3cccc(OCCCN4CCOCC4)c3)cc2)c1)NO` [Compound 74, (E)-N-Hydroxy-3-{1-[3′-(3-morpholin-4-yl-propoxy)-biphenyl-4-sulfonyl]-1H-pyrrol-3-yl}-acrylamide], for which the IC50 lay within 0.014 to 6.7 µM. `COc1ccc(-c2ccc(S(=O)(=O)n3ccc(/C=C/C(=O)NO)c3)cc2)cc1` [Compound 82, (E)-N-Hydroxy-3-[1-(4′-methoxy-biphenyl-4-sulfonyl)-1H-pyrrol-3-yl]-acrylamide]: the IC50 lay in the range of 0.014 to 6.7 µM. As to `O=C(/C=C/c1ccn(S(=O)(=O)c2ccc(-c3ccc(OCCCN4CCCC4)cc3)cc2)c1)NO` [Compound 81, (E)-N-Hydroxy-3-{1-[4′-(3-pyrrolidin-1-yl-propoxy)-biphenyl-4-sulfonyl]-1H-pyrrol-3-yl}-acrylamide], the IC50 lay within 0.014 to 6.7 µM. For `NCc1cccc(-c2ccc(S(=O)(=O)n3ccc(/C=C/C(=O)NO)c3)s2)c1` [Compound 94, (E)-3-{1-[5-(3-Aminomethyl-phenyl)-thiophene-2-sulfonyl]-1H-pyrrol-3-yl}-N-hydroxy-acrylamide] the value was 0.014 to 6.7 µM; for `CN(C)Cc1ccc(-c2ccc(S(=O)(=O)n3ccc(/C=C/C(=O)Nc4ccccc4N)c3)cn2)cc1` [Compound 89, (E)-N-(2-Amino-phenyl)-3-{1-[6-(4-dimethylaminomethyl-phenyl)-pyridine-3-sulfonyl]-1H-pyrrol-3-yl}-acrylamide], 0.014 to 6.7 µM.

Turning to `CS(=O)(=O)NCc1ccc(-c2ccc(S(=O)(=O)n3ccc(/C=C/C(=O)Nc4ccccc4N)c3)cc2)cc1` [Compound 98, (E)-N-(2-Amino-phenyl)-3-{1-[4′-(methanesulfonylamino-methyl)biphenyl-4-sulfonyl]-1H-pyrrol-3-yl}-acrylamide], the IC50 lay in the range of 0.014 to 6.7 µM. Take `CN(C)S(=O)(=O)c1ccc(-c2ccc(S(=O)(=O)n3ccc(/C=C/C(=O)NO)c3)s2)cc1` [Compound 100, (E)-3-{1-[5-(4-Dimethylsulfamoyl-phenyl)-thiophene-2-sulfonyl]-1H-pyrrol-3-yl}-N-hydroxy-acrylamide]: the IC50 lay in the range of 0.014 to 6.7 µM.

Consider `O=C(/C=C/c1ccn(S(=O)(=O)c2ccc(-c3ccc(O)cc3)cc2)c1)NO` [Compound 67, (E)-N-Hydroxy-3-[1-(4′-hydroxy-biphenyl-4-sulfonyl)-1H-pyrrol-3-yl]acrylamide], for which the IC50 lay within 0.014 to 6.7 µM.

For the compound `CS(=O)(=O)Nc1ccc(-c2cccc(S(=O)(=O)n3ccc(/C=C/C(=O)Nc4ccccc4N)c3)c2)cc1` [Compound 101, (E)-N-(2-Amino-phenyl)-3-[1-(4′-methanesulfonylamino-biphenyl-3-sulfonyl)-1H-pyrrol-3-yl]-acrylamide], the IC50 lay within 0.014 to 6.7 µM. As to `CN(C)Cc1cccc(-c2ccc(S(=O)(=O)n3ccc(/C=C/C(=O)Nc4ccccc4N)c3)cc2)c1` [Compound 96, (E)-N-(2-Amino-phenyl)-3-[1-(3′-dimethylaminomethyl-biphenyl-4-sulfonyl)-1H-pyrrol-3-yl]-acrylamide], the IC50 fell in the range of 0.014 to 6.7 µM. As to `CN(C)Cc1ccc(-c2ccc(S(=O)(=O)n3ccc(/C=C/C(=O)Nc4ccccc4N)c3)s2)cc1` [Compound 95, (E)-N-(2-Amino-phenyl)-3-{1-[5-(4-dimethylaminomethyl-phenyl)-thiophene-2-sulfonyl]-1H-pyrrol-3-yl}-acrylamide], the IC50 was in the range of 0.014 to 6.7 µM. With `CN1CCC(CCOc2ccc(-c3ccc(S(=O)(=O)n4ccc(C=CC(=O)NO)c4)cc3)cc2)CC1` [Compound 68, (E)-N-Hydroxy-3-(1,4′-[2-(1-methyl-piperidin-4-yl)-ethoxy]biphenyl-4-sulfonyl)-1H-pyrrol-3-yl)-acrylamide], the IC50 lay in the range of 0.014 to 6.7 µM. For `O=C(/C=C/c1ccn(S(=O)(=O)c2ccc(-c3cn(CCN4CCOCC4)nn3)cc2)c1)NO` [Compound 83, (E)-N-Hydroxy-3-(1-{4-[1-(2-morpholin-4-yl-ethyl)-1H-[1,2,3]triazol-4-yl]-benzenesulfonyl}-1H-pyrrol-3-yl)-acrylamide] the value was 0.014 to 6.7 µM; for `Cc1nc(-c2ccc(S(=O)(=O)n3ccc(/C=C/C(=O)NO)c3)s2)cs1` [Compound 90, (E)-N-Hydroxy-3-{1-[5-(2-methyl-thiazol-4-yl)-thiophene-2-sulfonyl]-1H-pyrrol-3-yl}-acrylamide], 0.014 to 6.7 µM.

In the case of `O=C(/C=C/c1ccn(S(=O)(=O)c2ccc(-c3ccc(OCCN4CCCC4)cc3)nc2)c1)NO` [Compound 92, (E)-N-Hydroxy-3-(1-{6-[4-(2-pyrrolidin-1-yl-ethoxy)-phenyl]-pyridine-3-sulfonyl}-1H-pyrrol-3-yl)-acrylamide], the IC50 fell in the range of 0.014 to 6.7 µM. As to `CN1CCN(CCCOc2cccc(-c3ccc(S(=O)(=O)n4ccc(/C=C/C(=O)NO)c4)cc3)c2)CC1` [Compound 73, (E)-N-Hydroxy-3-(1-{3′-[3-(4-methyl-piperazin-1-yl)-propoxy]-biphenyl-4-sulfonyl}-1H-pyrrol-3-yl)-acrylamide], the IC50 lay within 0.014 to 6.7 µM. Next, `Nc1cccc(-c2ccc(S(=O)(=O)n3ccc(/C=C/C(=O)NO)c3)cc2)c1` [Compound 66, (E)-3-[1-(3′-Amino-biphenyl-4-sulfonyl)-1H-pyrrol-3-yl]-N-hydroxy-acrylamide]: 0.014 to 6.7 µM. Next, `O=C(/C=C/c1ccn(S(=O)(=O)c2ccc(-c3ccc(OCCCN4CCOCC4)cc3)cc2)c1)NO` [Compound 78, (E)-N-Hydroxy-3-{1-[4′-(3-morpholin-4-yl-propoxy)-biphenyl-4-sulfonyl]-1H-pyrrol-3-yl}-acrylamide]: 0.014 to 6.7 µM.

Consider `CN1CCN(c2cc(-c3ccc(S(=O)(=O)n4ccc(/C=C/C(=O)Nc5ccccc5N)c4)s3)ccn2)CC1` [Compound 106, (E)-N-(2-Amino-phenyl)-3-(1-{5-[2-(4-methyl-piperazin-1-yl)-pyridin-4-yl]-thiophene-2-sulfonyl}-1H-pyrrol-3-yl)-acrylamide], for which the IC50 lay in the range of 0.014 to 6.7 µM.

On to `CC(=O)NCc1ccc(-c2ccc(S(=O)(=O)n3ccc(/C=C/C(=O)Nc4ccccc4N)c3)cc2)cc1` [Compound 97, (E)-3-{1-[4′-(Acetylamino-methyl)-biphenyl-4-sulfonyl]-1H-pyrrol-3-yl}-N-(2-amino-phenyl)-acrylamide], for which the IC50 lay within 0.014 to 6.7 µM. Take `NCc1ccc(-c2ccccc2)cc1S(=O)(=O)n1ccc(/C=C/C(=O)NO)c1` [Compound 91, (E)-3-[1-(4-Aminomethyl-biphenyl-3-sulfonyl)-1H-pyrrol-3-yl]-N-hydroxy-acrylamide]: the IC50 lay within 0.014 to 6.7 µM. `Cn1cc(-c2ccc(S(=O)(=O)n3ccc(/C=C/C(=O)Nc4ccccc4N)c3)s2)cn1` [Compound 104, (E)-N-(2-Amino-phenyl)-3-{1-[5-(1-methyl-1H-pyrazol-4-yl)-thiophene-2-sulfonyl]-1H-pyrrol-3-yl}-acrylamide]: the IC50 was in the range of 0.014 to 6.7 µM. Take `O=C(C=Cc1ccn(S(=O)(=O)c2ccc(-c3ccc(OCCN4CCCC4)cc3)s2)c1)NO` [Compound 99, (E)-N-Hydroxy-3-(1-{5-([4-(2-pyrrolidin-1-yl-ethoxy)-phenyl]-thiophene-2-sulfonyl}-1H-pyrrol-3-yl)-acrylamide]: the IC50 was 0.014 to 6.7 µM. `CN1CCN(CCOc2ccc(-c3ccc(S(=O)(=O)n4ccc(/C=C/C(=O)NO)c4)cc3)cc2)CC1` [Compound 76, (E)-N-Hydroxy-3-(1-{4′-[2-(4-methyl-piperazin-1-yl)-ethoxy]-biphenyl-4-sulfonyl}-1H-pyrrol-3-yl)-acrylamide]: the IC50 lay within 0.014 to 6.7 µM.
